From US20190315711A1 (eXIthera Pharmaceuticals, Inc., priority 2016, published 2019)

Tests used:
Assay type in all cases: biochemical
[1] = target: T1, Thrombin (Homo sapiens, UniProt P00734); experiment: Dose response assay for protease inhibitors: thrombin; details: ratio versus Factor XIa
T1 construct: Thrombin; 0.2 μM in 50% glycerol (7.34 μg/mL)
Procedure: (§1) • Assay buffer: 20 mM Hepes, pH 7.4; 150 mM NaCl; 0.02% Tween 20 • Compounds: 10 mM stocks in DMSO • Substrate: 20 mM Glp-Pro-Arg-AMC, 25 mg/2.3 mL H2O (store at +4° C.) [Factor XIa, thrombin, and trypsin] • 20 mM Pro-Phe-Arg-AMC (Bachem I-1295), 25 mg/2.2 mL H2O or Boc-Leu-Gly-Arg-AMC (Bachem I-1105), 25 mg/2.07 mL H2O (store at +4° C.) [Factor Xa] • Enzyme: Factor XIa; 0.25 M in 50% glycerol (20 μg/mL) • Trypsin; 0.2 μM in 50% glycerol (4.8 μg/mL) • Thrombin; 0.2 μM in 50% glycerol (7.34 μg/mL) • Factor Xa; 0.2 μM in 50% glycerol (9.2 μg/mL)
(§2) • 1. Dilute the substrate to 100 μM in assay buffer (30 μL/6 mL). The enzyme is diluted to 0.5 nM just prior to use (12 L/6 mL for Factor XIa; 15 μL/6 mL for all of the rest.) • 2. Pipette 50 μL of substrate into each well of the 96 well (12×8) microtiter plate. (Column 1 is used as the 100% activity control and receives no compound, and Column 12 is the blank and receives no enzyme.) Add an additional 46 μL to column 2. • 3. Pipette 4 μL of each compound into the appropriate well in column 2 of the plate (unknowns assayed in triplicate, standard assayed in duplicate). The final compound concentration will be 1/50th of the stock. • 4. Serially two-fold dilute the compound by mixing the sample in column 2, removing 50 μL to the next well (column 3), mix and remove to column 4, etc. until column 11. After mixing column 11, remove 50 μL and discard. • 5. Pipette 50 μL of buffer into column 12. Initiate the reaction by adding 50 μL of enzyme solution to each well of columns 1-11 as rapidly as possible. • 6. Read the plate in a spectrophotometer (SpectraMax) at 30° C., wherein each well is measured every 60 s for 30 min. For Factor Xa assays, each well is measured every 1 min for a total of 60 min. • 7. For Factor XIa assays, the compounds are assayed, in duplicate, at 3 different starting concentrations, 20, 2, and 0.2 μM; 1:10, 1:100, and 1:1000 dilution of 10 mM stock or at 2, 0.2, and 0.02 μM; 1:100, 1:1000, and 1:10,000 dilution of 10 mM stock. Data for each concentration are combined for graphing and data fitting. • 8. Data can be used both for estimation of IC50 and for estimation of Kon.

[2] = target: T2, Factor Xa (Homo sapiens, UniProt P00742); experiment: Dose response assay for protease inhibitors: Factor Xa; details: ratio versus Factor XIa
T2 construct: Factor Xa; 0.2 μM in 50% glycerol (9.2 μg/mL)
Procedure: as §1, §2

[3] = target: T3, Trypsin (Bos taurus, UniProt P00760); experiment: Dose response assay for protease inhibitors: trypsin; details: ratio versus Factor XIa
T3 construct: gene PRSS1
T3 sequence (P00760 24-246): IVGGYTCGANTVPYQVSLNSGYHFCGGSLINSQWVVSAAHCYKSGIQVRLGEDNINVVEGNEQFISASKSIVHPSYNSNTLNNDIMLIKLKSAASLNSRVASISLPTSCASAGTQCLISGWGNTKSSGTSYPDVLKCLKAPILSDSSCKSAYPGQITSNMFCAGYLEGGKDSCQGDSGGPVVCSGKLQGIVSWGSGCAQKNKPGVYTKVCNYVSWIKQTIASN
Procedure: as §1, §2

[4] = target: human Factor XIa (Homo sapiens, UniProt P03951); experiment: Factor XIa enzyme inhibition assay (dose response, fluorogenic AMC substrate); parameters: Enzyme: Factor XIa; details: purified enzyme; substrate 50 μM, enzyme 0.25 nM; read-out: hFXIa IC50
Procedure: as §1, §2
Potential inhibitors of Factor XIa were evaluated using the following assay.
PyroGlu-Pro-Arg-7-methylaminocourin (AMC), available from CPC Scientific, Inc., is based on the substrate pyro-Glu-Pro-Arg-pNA (S-2366), available from Diapharma Group, Inc. (Columbus, Ohio), wherein the p-nitroanaline group is replaced with 7-methylaminocoumarin (AMC).
The final concentration of the substrate in the assay was 50 μM, and the final concentration of the enzyme was 0.25 nM. Inhibitors were tested by serial dilution over an appropriate range to yield a dose response curve for determination of the inhibitors' IC50 value. The assay mixture was read every minute for 30 minutes in order to generate progress curves. The plates were read in a Spectramax m5 Multimode Plate Reader (Molecular Devices LLC, Sunnyvale, Calif.). Dose response curves were fit to Equation 1 below in which A is the maximum inhibition, B is the minimum inhibition, C is the IC50, and D is the Hill coefficient.
Y=[(A−B)/(1+(X/C)^D)]+B (Equation 1)

T2 sequence (P00742 235-488 limits assumed): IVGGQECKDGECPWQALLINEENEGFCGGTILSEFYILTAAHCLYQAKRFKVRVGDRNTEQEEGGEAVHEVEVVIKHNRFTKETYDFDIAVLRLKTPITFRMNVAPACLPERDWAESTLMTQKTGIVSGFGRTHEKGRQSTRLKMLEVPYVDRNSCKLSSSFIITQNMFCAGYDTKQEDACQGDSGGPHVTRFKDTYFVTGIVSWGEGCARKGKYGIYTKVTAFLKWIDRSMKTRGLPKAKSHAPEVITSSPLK
T2 sequence (P00742 41-179 partner limits assumed): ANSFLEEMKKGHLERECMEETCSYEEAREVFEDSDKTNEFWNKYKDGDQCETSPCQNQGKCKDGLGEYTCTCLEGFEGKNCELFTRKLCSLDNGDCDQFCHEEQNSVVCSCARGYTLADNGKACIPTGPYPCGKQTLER
Sequence of human Factor XIa (P03951 388-625 limits assumed): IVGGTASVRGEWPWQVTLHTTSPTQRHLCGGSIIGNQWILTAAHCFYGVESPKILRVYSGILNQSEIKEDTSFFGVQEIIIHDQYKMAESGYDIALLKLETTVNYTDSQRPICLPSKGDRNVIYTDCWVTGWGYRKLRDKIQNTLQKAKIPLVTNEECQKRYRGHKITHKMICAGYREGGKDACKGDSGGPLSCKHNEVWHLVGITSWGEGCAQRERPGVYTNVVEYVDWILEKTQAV
Sequence of human Factor XIa (P03951 19-387 partner limits assumed): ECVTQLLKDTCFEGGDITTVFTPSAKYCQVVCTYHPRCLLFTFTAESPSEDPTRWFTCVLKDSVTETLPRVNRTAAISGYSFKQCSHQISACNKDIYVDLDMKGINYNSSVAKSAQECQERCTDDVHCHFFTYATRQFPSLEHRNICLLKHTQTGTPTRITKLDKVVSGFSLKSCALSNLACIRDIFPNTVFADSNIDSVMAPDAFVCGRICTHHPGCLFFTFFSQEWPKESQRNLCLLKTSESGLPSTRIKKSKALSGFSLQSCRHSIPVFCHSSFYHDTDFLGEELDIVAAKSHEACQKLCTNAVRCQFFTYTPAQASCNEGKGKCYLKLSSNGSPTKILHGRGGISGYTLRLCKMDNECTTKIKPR

With `CC[C@@H](NC(=O)N1C(=O)[C@H](Cc2ccnc(N)c2)[C@H]1C(=O)N(C)c1ccncc1)c1ccc(C)nc1` [Compound 104] the “Ratio: Thrombin/FXIa” value [1] was “H (“H” indicates 101-1000)”, the “FXa/FXIa (selectivity ratio)” value [2] was “I (“I” indicates >500)” and the “Ratio: Trypsin/FXIa” value [3] was “H (“H” indicates 101-1000)”. For the same molecule, the IC50 [4] was under 10 nM.
For `CC[C@@H](NC(=O)N1C(=O)[C@H](Cc2ccnc(N)c2)[C@H]1C(=O)N(C)c1cccc(Cl)c1)c1cccc(Cl)c1` [Compound 118], the “Ratio: Thrombin/FXIa” value [1] was “G (“G” indicates 1-100)”, the “FXa/FXIa (selectivity ratio)” value [2] was “H (“H” indicates 101-1000)” and the “Ratio: Trypsin/FXIa” value [3] was “G (“G” indicates 1-100)”. For the same molecule, the IC50 [4] was under 10 nM.
For `CC(C)[C@@H](NC(=O)N1C(=O)[C@H](Cc2ccnc(N)c2)[C@H]1C(=O)N(C)c1ccccc1)C1CCCCC1` [Compound 35], the “Ratio: Thrombin/FXIa” value [1] was “H (“H” indicates 101-1000)”, the “FXa/FXIa (selectivity ratio)” value [2] was “I (“I” indicates >500)” and the “Ratio: Trypsin/FXIa” value [3] was “G (“G” indicates 1-100)”. The IC50 [4] was under 10 nM.
In the case of `CC[C@@H](NC(=O)N1C(=O)[C@H](Cc2cc(C)nc(N)c2)[C@H]1C(=O)N(C)c1ccccc1)c1ccccc1` [Compound 119], the “Ratio: Thrombin/FXIa” value [1] is reported as “H (“H” indicates 101-1000)”, the “FXa/FXIa (selectivity ratio)” value [2] is reported as “I (“I” indicates >500)” and the “Ratio: Trypsin/FXIa” value [3] is reported as “G (“G” indicates 1-100)”. The IC50 [4] was under 10 nM.
`CC[C@@H](NC(=O)N1C(=O)[C@H](Cc2ccnc(N)c2)[C@H]1C(=O)N(C)c1ccncc1)c1cccc(Br)c1` [Compound 98] was tested, and the “Ratio: Thrombin/FXIa” value [1] was “H (“H” indicates 101-1000)”, the “FXa/FXIa (selectivity ratio)” value [2] was “H (“H” indicates 101-1000)” and the “Ratio: Trypsin/FXIa” value [3] was “G (“G” indicates 1-100)”. It also gave an IC50 [4] of under 10 nM.
`CC[C@@H](NC(=O)N1C(=O)[C@H](Cc2cc(C)nc(N)c2)[C@H]1C(=O)N(C)c1ncccn1)c1cccc(Cl)c1` [Compound 135] was tested, and the “Ratio: Thrombin/FXIa” value [1] was “H (“H” indicates 101-1000)”, the “FXa/FXIa (selectivity ratio)” value [2] was “I (“I” indicates >500)” and the “Ratio: Trypsin/FXIa” value [3] was “G (“G” indicates 1-100)”. For the same molecule, the IC50 [4] was under 10 nM.
`CC[C@@H](NC(=O)N1C(=O)[C@H](Cc2ccnc(N)c2)[C@H]1C(=O)N(C)c1ccnc(C)c1)c1cccc(Cl)c1` [Compound 124] was tested, and the “Ratio: Thrombin/FXIa” value [1] was “G (“G” indicates 1-100)”, the “FXa/FXIa (selectivity ratio)” value [2] was “H (“H” indicates 101-1000)” and the “Ratio: Trypsin/FXIa” value [3] was “G (“G” indicates 1-100)”. The IC50 [4] was under 10 nM.
`CC[C@@H](NC(=O)N1C(=O)[C@H](Cc2ccnc(N)c2)[C@H]1C(=O)N(C)c1ccncc1)c1cc(Cl)ccc1Cl` [Compound 112] was tested, and the “Ratio: Thrombin/FXIa” value [1] was “H (“H” indicates 101-1000)”, the “FXa/FXIa (selectivity ratio)” value [2] was “H (“H” indicates 101-1000)” and the “Ratio: Trypsin/FXIa” value [3] was “G (“G” indicates 1-100)”. For the same molecule, the IC50 [4] was under 10 nM.
For `CC[C@@H](NC(=O)N1C(=O)[C@H](Cc2ccnc(N)c2)[C@H]1C(=O)N(C)c1ccccc1)c1ccccc1` [Compound 40], the “Ratio: Thrombin/FXIa” value [1] was “H (“H” indicates 101-1000)”, the “FXa/FXIa (selectivity ratio)” value [2] was “H (“H” indicates 101-1000)” and the “Ratio: Trypsin/FXIa” value [3] was “G (“G” indicates 1-100)”. It also gave an IC50 [4] of under 10 nM.
With `CN(C(=O)[C@@H]1[C@@H](Cc2ccncc2)C(=O)N1C(=O)N[C@@H](C1CCCCC1)C1CC1)c1ccncc1` [Compound 64] the “Ratio: Thrombin/FXIa” value [1] was “H (“H” indicates 101-1000)”, the “FXa/FXIa (selectivity ratio)” value [2] was “H (“H” indicates 101-1000)” and the “Ratio: Trypsin/FXIa” value [3] was “H (“H” indicates 101-1000)”. It also gave an IC50 [4] of 10 to 100 nM.
In the case of `CCN(C(=O)[C@@H]1[C@@H](Cc2ccnc(N)c2)C(=O)N1C(=O)N[C@@H](C1CCCCC1)C1CC1)c1ccccc1` [Compound 55], the “Ratio: Thrombin/FXIa” value [1] is reported as “H (“H” indicates 101-1000)”, the “FXa/FXIa (selectivity ratio)” value [2] is reported as “I (“I” indicates >500)” and the “Ratio: Trypsin/FXIa” value [3] is reported as “G (“G” indicates 1-100)”. For the same molecule, the IC50 [4] was under 10 nM.
In the case of `CC[C@@H](NC(=O)N1C(=O)[C@H](Cc2ccnc(N)c2)[C@H]1C(=O)N(C)c1cccc(F)c1)c1cccc(Cl)c1` [Compound 116], the “Ratio: Thrombin/FXIa” value [1] is reported as “H (“H” indicates 101-1000)”, the “FXa/FXIa (selectivity ratio)” value [2] is reported as “H (“H” indicates 101-1000)” and the “Ratio: Trypsin/FXIa” value [3] is reported as “G (“G” indicates 1-100)”. It also gave an IC50 [4] of under 10 nM.
For `CC[C@@H](NC(=O)N1C(=O)[C@H](Cc2ccnc(N)c2)[C@H]1C(=O)N(C)c1cccc(F)c1)C1CCCCC1` [Compound 29], the “Ratio: Thrombin/FXIa” value [1] was “H (“H” indicates 101-1000)”, the “FXa/FXIa (selectivity ratio)” value [2] was “I (“I” indicates >500)” and the “Ratio: Trypsin/FXIa” value [3] was “G (“G” indicates 1-100)”. For the same molecule, the IC50 [4] was under 10 nM.
For `CC[C@@H](NC(=O)N1C(=O)[C@H](Cc2ccnc(N)c2)[C@H]1C(=O)N(C)c1cccc(C)c1)c1cccc(Cl)c1` [Compound 117], the “Ratio: Thrombin/FXIa” value [1] was “G (“G” indicates 1-100)”, the “FXa/FXIa (selectivity ratio)” value [2] was “H (“H” indicates 101-1000)” and the “Ratio: Trypsin/FXIa” value [3] was “G (“G” indicates 1-100)”. The IC50 [4] was under 10 nM.
`CC[C@@H](NC(=O)N1C(=O)[C@H](Cc2ccnc(N)c2)[C@H]1C(=O)N(CC)c1ccccc1)C1CCCCC1` [Compound 31] was tested, and the “Ratio: Thrombin/FXIa” value [1] was “H (“H” indicates 101-1000)”, the “FXa/FXIa (selectivity ratio)” value [2] was “I (“I” indicates >500)” and the “Ratio: Trypsin/FXIa” value [3] was “G (“G” indicates 1-100)”. It also gave an IC50 [4] of under 10 nM.
